# Assay results from US7179819B2, “VLA-4 inhibitor compounds” (Daiichi Pharmaceutical Co., Ltd., priority 1999, dated 2007).
row,melting point,SMILES
1,169 to 171 °C,"O=C(Nc1ccccc1)Nc1ccc(CC(=O)N2C[C@@H](F)C[C@H]2COc2ccc(C(=O)O)cc2)cc1 [Compound 72, 4-[(4S)-fluoro-1-[4-(N′-phenylureido)phenylacetyl]-(2S)-pyrrolidinylmethoxy]benzoic acid]"
2,130 to 135 °C,"Cc1cc(CC(=O)N2C[C@@H](F)C[C@H]2COc2ccc(C(=O)O)cc2)ccc1NC(=O)Nc1ccccc1 [Compound 73, 4-[(4S)-fluoro-1-[3-methyl-4-(N′-phenylureido)phenylacetyl]-(2S)-pyrrolidinylmethoxy]benzoic acid]"
3,137 to 143 °C,"Cc1cc(CC(=O)N2C[C@@H](F)C[C@H]2COc2ccc(C(=O)O)cc2)ccc1NC(=O)Nc1ccccc1F [Compound 74, 4-[(4S)-fluoro-1-[4-[N′-(2-fluorophenyl)ureido]-3-methylphenylacetyl]-(2S)-pyrrolidinylmethoxy]benzoic acid]"
4,130 to 135 °C,"O=C(Nc1ccc(CC(=O)N2C[C@@H](F)C[C@H]2COc2ccc(C(=O)O)cc2)cc1)Nc1ccccc1C(F)(F)F [Compound 75, 4-[(4S)-fluoro-1-[4-[N′-(2-trifluoromethylphenyl)ureido]phenylacetyl]-(2S)-pyrrolidinylmethoxy]benzoic acid]"
5,129 to 132 °C,"COc1cc(CC(=O)N2C[C@@H](F)C[C@H]2COc2ccc(C(=O)O)cc2)ccc1NC(=O)Nc1ccccc1C(F)(F)F [Compound 76, 4-[(4S)-fluoro-1-[3-methoxy-4-[N′-(2-trifluoromethylphenyl)ureido]phenylacetyl]-(2S)-pyrrolidinylmethoxy]benzoic acid]"
6,123 to 126 °C,"Cc1cc(CC(=O)N2C[C@@H](F)C[C@H]2COc2ccc(C(=O)O)cc2)ccc1NC(=O)Nc1ccccc1C(F)(F)F [Compound 77, 4-[(4S)-fluoro-1-[3-methyl-4-[N′-(2-trifluoromethylphenyl)ureido]phenylacetyl]-(2S)-pyrrolidinylmethoxy]benzoic acid]"
7,122 to 124 °C,"Cc1cc(CC(=O)N2CCC[C@H]2COc2ccc(C(=O)O)cc2)ccc1NC(=O)Nc1ccccc1Cl [Compound 81, 4-[1-[4-[N′-(2-chlorophenyl)ureido]-3-methylphenylacetyl]-(2S)-pyrrolidinyl]methoxybenzoic acid]"
8,125 to 130 °C,"Cc1cc(CC(=O)N2CCC[C@H]2COc2ccc(C(=O)O)cc2)ccc1NC(=O)Nc1ccccc1Br [Compound 82, 4-[1-[4-[N′-(2-bromophenyl)ureido]-3-methylphenylacetyl]-(2S)-pyrrolidinyl]methoxybenzoic acid]"
9,191 to 193 °C,"Cc1ccccc1NC(=O)Nc1ccc(CC(=O)N2CCC[C@H]2COc2ccc(C(=O)O)cc2)cc1C [Compound 83, 4-[1-[3-methyl-4-[N′-(2-methylphenyl)ureido]phenylacetyl]-(2S)-pyrrolidinylmethoxy]benzoic acid]"
10,168 to 172 °C (dec.),"O=C(Nc1ccc(CC(=O)N2C[C@@H](F)C[C@H]2COc2ccc(C(=O)O)cc2)cc1)Nc1c(Cl)cccc1Cl [Compound 87, 4-[1-[4-[N′-(2,6-dichlorophenyl)ureido]phenylacetyl]-(4S)-fluoro-(2S)-pyrrolidinyl]methoxy benzoic acid]"
11,162 to 168 °C (dec.),"COc1cc(CC(=O)N2C[C@@H](F)C[C@H]2COc2ccc(C(=O)O)cc2)ccc1NC(=O)Nc1c(Cl)cccc1Cl [Compound 88, 4-[1-[4-[N′-(2,6-dichlorophenyl)ureido]-3-methoxyphenylacetyl]-(4S)-fluoro-(2S)-pyrrolindinyl]methoxybenzoic acid]"
12,127 to 132 °C,"COc1cc(CC(=O)N2C[C@@H](Cl)C[C@H]2COc2ccc(C(=O)O)cc2)ccc1NC(=O)Nc1ccccc1Br [Compound 103, 4-[1-[4-[N′-(2-bromophenyl)ureido]-3-methoxyphenylacetyl]-(4S)-chloro-(2S)-pyrrolidinyl]methoxybenzoic acid]"
13,148 to 152 °C (dec.),COc1cc(CC(=O)N2C[C@@H](O)C[C@H]2COc2ccc(C(=O)O)cc2)ccc1NC(=O)Nc1ccccc1C [Compound 106]
14,138 to 142 °C (dec.),"COc1cc(CC(=O)N2C[C@@H](O)C[C@H]2COc2ccc(C(=O)O)cc2)ccc1NC(=O)Nc1ccccc1Cl [Compound 107, 4-[1-[4-[N′-(2-chlorophenyl)ureido]-3-methoxyphenylacetyl]-(4S)-hydroxy-(2S)-pyrrolidinyl]methoxybenzoic acid]"
15,137 to 142 °C,COc1cc(CC(=O)N2C[C@H](O)C[C@H]2COc2ccc(C(=O)O)cc2)ccc1NC(=O)Nc1ccccc1Cl [Compound 109]
16,178 to 182 °C,"COc1cc(CC(=O)N2C[C@H](O)C[C@H]2COc2ccc(C(=O)O)cc2)ccc1NC(=O)Nc1ccccc1C [Compound 110, 4-[(4R)-hydroxy-1-[3-methoxy-4-[N′-(2-methylphenyl)ureido]phenylacetyl]-(2S)-pyrrolidinylmethoxy]benzoic acid]"
17,154 to 159 °C,"COc1cc(CC(=O)N2C[C@@H](Oc3ccc(C(=O)O)cc3)C[C@H]2COc2ccc(C(=O)O)cc2)ccc1NC(=O)Nc1ccccc1C [Compound 116, 4-[(4S)-(4-carboxyphenoxy)-1-[3-methoxy-4-[N′-(2-methylphenyl)uriedo]phenylacetyl]-(2S)-pyrrolidinylmethoxy]benzoic acid]"
18,150 to 153 °C,"COc1cc(CC(=O)N2C[C@@H](Oc3ccc(C(=O)O)cc3)C[C@H]2COc2ccc(C(=O)O)cc2)ccc1NC(=O)Nc1ccccc1Cl [Compound 117, 4-[(4S)-(4-carboxyphenoxy)-1-[4-[N′-(2-chlorophenyl)uriedo]-3-methoxyphenylacetyl]-(2S)-pyrrolidinylmethoxy]benzoic acid]"
19,157 to 160 °C,"Cc1ccccc1NC(=O)Nc1ccc(CC(=O)N2C[C@@H](Oc3ccc(C(=O)O)cc3)C[C@H]2COc2ccc(C(=O)O)cc2)cc1 [Compound 119, 4-[(4S)-(4-carboxyphenoxy)-1-[4-[N′-(2-methylphenyl)uriedo]phenylacetyl]-(2S)-pyrrolidinylmethoxy]benzoic acid]"
20,129 to 133 °C,COc1cc(CC(=O)N2C[C@@H](Oc3ccc4ncccc4c3)C[C@H]2COc2ccc(C(=O)O)cc2)ccc1NC(=O)Nc1ccccc1Cl [Compound 121]
21,149 to 153 °C,COc1cc(CC(=O)N2C[C@@H](Oc3ccc4ncccc4c3)C[C@H]2COc2ccc(C(=O)O)cc2)ccc1NC(=O)Nc1ccccc1Br [Compound 122]
22,112 to 115 °C,"COc1cc(CC(=O)N2C[C@H](OC)C[C@H]2COc2ccc(C(=O)O)cc2)ccc1NC(=O)Nc1ccccc1C [Compound 135, 4-[(4R)-methoxy-1-[3-methoxy-4-[N′-(2-methylphenyl)ureido]phenylacetyl]-(2S)-pyrrolidinylmethoxy]benzoic acid]"
23,111 to 116 °C,"COc1cc(CC(=O)N2C[C@H](OC)C[C@H]2COc2ccc(C(=O)O)cc2)ccc1NC(=O)Nc1ccccc1F [Compound 136, 4-[1-[4-[N′-(2-fluorophenyl)ureido]-3-methoxyphenylacetyl]-(4R)-methoxy-(2S)-pyrrolidinylmethoxy]benzoic acid]"

row,SMILES,melting point
1,COc1cc(CC(=O)N2C[C@@H](O)C[C@H]2COc2ccc(C(=O)O)cc2)ccc1NC(=O)Nc1ccccc1Br [Compound 108],143 to 151 °C (dec.)
